Reference: patent US20030207393A1, “Cbp86, a sperm specific protein” (priority 2002, published 2003)
“Also recorded” adds a separate entry of the source.

Key:
86 kDa form of CBP86 = assay: In vitro capacitation of human sperm, anti-phosphotyrosine (RC-20) 2-D immunoblot of CBP86; format: cell-based; conditions: for Capacitation-induced tyrosine phosphorylation of the 86 kDa CBP86 isoforms: human sperm capacitated in HTF plus HSA plus 100 μμM progesterone plus 100, 200 or 400 μμM of inhibitor
Protocol: Preparation of semen specimens and solubilization of sperm proteins were performed as previously described (Naaby-Hansen et al, 1997a.) For analytical two-dimensional electrophoresis the detergent/urea extracted proteins were separated by isoelectric focusing (IEF) in acrylamide tube gels prior to second dimensional gel electrophoresis (SDS-PAGE), which was performed in a Protean II xi Multi-Cell apparatus (Bio-Rad, Richmond, Calif.) or on large format (23×23 cm) gels (Investigator 2-D Electrophoresis System, ESA) which were also employed for preparative 2D gel electrophoresis. Electrotransfer to nitrocellulose membranes and subsequent visualizing of the proteins by gold staining was accomplished as previously described (Naaby-Hansen et al, 1997) while electrotransfer to PVDF membranes ([…], Pierce) was carried out as described by Henzel et al. (1993) using the transfer buffer composition of Matsudaira (1987) (10 mM 3-[cyclohexylamino]-1-propanesulfonic acid, 10% methanol, pH 11). The immobilized proteins were visualized by staining in a solution containing 0.1% Commassie R250, 40% methanol and 0.1% acetic acid for one minute, followed by destaining in a solution of 10% acetic acid and 50% methanol for 3×3 minutes.
Motile sperm were harvested by the swim up method of Bronson and Fusi (1990). A control sample was removed and snap frozen (−70 C.), while the remaining sperm were resuspended in one of the following media: Dulbecco's PBS, BWW, BWW plus 3 mM b-cyclodextran (Sigma), BWW plus b-cyclodextran and 100 μμM progesterone, human tubal fluid [HTF] (Irvine) plus HSA (30 mg/ml), HTF plus HSA plus 2, 20 or 100 μμM progesterone, HTF plus HSA plus 100 μμM progesterone plus either 100, 200 or 400 μμM of genestein or daidzein. (Akiyama et al., 1987). Capacitation was achieved by incubating the samples at 37° C. in 5% CO2 with sperm removed at various timepoints and isolated by centrifugation. […]

[1] = test system: T1, recombinant CBP86 (CR-A of CBP86 with C-terminal six-histidine tag, expressed in E. coli)
T1 sequence: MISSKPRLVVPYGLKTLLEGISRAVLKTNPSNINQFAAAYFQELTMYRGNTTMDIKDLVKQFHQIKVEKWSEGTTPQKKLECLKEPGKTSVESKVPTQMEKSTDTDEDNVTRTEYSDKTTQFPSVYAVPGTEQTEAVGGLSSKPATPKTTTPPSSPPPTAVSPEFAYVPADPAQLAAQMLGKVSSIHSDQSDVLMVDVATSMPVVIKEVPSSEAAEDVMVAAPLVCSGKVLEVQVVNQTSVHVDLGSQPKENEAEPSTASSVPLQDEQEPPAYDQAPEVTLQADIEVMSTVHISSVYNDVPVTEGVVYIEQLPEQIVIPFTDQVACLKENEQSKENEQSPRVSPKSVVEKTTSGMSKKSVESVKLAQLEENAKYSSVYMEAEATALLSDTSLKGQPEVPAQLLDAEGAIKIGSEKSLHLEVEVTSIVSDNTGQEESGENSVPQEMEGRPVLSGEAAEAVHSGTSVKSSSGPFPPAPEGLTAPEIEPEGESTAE

| Compound | Capacitation-induced tyrosine phosphorylation of the 86 kDa CBP86 isoforms (86 kDa form of CBP86) | also measured |
| --- | --- | --- |
| O=c1c(-c2ccc(O)cc2)coc2cc(O)ccc12 [daidzein] | had an inhibitory effect on phosphorylation of CBP86 |  |
| O=c1c(-c2ccc(O)cc2)coc2cc(O)cc(O)c12 [genistein] | inhibited in a concentration dependent manner |  |
| CC(=O)[C@H]1CC[C@H]2[C@@H]3CCC4=CC(=O)CC[C@]4(C)[C@H]3CC[C@]12C [progesterone] |  | Tyrosine phosphorylation of the most acidic of the CBP86 isoforms (86 kDa form of CBP86; 100 microM added to HTF+ albumin capacitation media, compared with HTF plus albumin alone): further enhanced the phosphorylation; also recorded: leads to phosphorylation of tyrosine residues on the acidic CBP86 isoforms |
| baculovirus expressed c-Src (Upstate Biotechnology, Inc.) |  | tyrosine phosphorylation of recombinant CBP86 in an in vitro kinase assay ([32P]ATP, SDS-PAGE, autoradiography) [1]: An increase in tyrosine phosphorylation of CBP86 was noted as its concentration increased in the presence of a constant amount of c-Src |
